Activity calls are given as the source filed them.
Columns and labels:
[1] = target: T1, Microphthalmia-associated transcription factor (Homo sapiens, UniProt O75030); assay: reducers of TRPM1 reporter luminescence, concentration series – cell-based, SK-MEL-5, cherry-picked, set 3, MITF inhibitor project, dose response (AID 493073); type: functional;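 note: SK-MEL-5 melanoma cells with luciferase driven by the MITF target TRPM1 promoter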
T1 sequence (O75030 whole entry): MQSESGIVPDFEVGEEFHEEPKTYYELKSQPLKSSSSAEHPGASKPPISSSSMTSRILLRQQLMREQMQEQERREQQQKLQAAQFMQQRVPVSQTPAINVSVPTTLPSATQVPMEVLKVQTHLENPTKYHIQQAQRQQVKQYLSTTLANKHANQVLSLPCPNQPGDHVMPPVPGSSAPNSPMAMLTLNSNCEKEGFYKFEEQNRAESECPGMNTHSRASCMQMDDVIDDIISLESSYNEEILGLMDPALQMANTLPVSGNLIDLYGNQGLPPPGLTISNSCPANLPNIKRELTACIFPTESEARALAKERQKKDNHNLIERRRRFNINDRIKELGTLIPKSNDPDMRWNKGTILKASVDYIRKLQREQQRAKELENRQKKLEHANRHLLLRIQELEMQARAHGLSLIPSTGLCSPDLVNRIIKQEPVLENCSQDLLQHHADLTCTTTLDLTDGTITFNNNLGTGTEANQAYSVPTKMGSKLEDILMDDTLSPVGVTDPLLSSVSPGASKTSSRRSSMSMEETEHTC

Beta-galactosidase = Beta-galactosidase (Escherichia coli, UniProt Q8VNN2); type: functional
Beta-galactosidase, sequence (Q8VNN2 whole entry): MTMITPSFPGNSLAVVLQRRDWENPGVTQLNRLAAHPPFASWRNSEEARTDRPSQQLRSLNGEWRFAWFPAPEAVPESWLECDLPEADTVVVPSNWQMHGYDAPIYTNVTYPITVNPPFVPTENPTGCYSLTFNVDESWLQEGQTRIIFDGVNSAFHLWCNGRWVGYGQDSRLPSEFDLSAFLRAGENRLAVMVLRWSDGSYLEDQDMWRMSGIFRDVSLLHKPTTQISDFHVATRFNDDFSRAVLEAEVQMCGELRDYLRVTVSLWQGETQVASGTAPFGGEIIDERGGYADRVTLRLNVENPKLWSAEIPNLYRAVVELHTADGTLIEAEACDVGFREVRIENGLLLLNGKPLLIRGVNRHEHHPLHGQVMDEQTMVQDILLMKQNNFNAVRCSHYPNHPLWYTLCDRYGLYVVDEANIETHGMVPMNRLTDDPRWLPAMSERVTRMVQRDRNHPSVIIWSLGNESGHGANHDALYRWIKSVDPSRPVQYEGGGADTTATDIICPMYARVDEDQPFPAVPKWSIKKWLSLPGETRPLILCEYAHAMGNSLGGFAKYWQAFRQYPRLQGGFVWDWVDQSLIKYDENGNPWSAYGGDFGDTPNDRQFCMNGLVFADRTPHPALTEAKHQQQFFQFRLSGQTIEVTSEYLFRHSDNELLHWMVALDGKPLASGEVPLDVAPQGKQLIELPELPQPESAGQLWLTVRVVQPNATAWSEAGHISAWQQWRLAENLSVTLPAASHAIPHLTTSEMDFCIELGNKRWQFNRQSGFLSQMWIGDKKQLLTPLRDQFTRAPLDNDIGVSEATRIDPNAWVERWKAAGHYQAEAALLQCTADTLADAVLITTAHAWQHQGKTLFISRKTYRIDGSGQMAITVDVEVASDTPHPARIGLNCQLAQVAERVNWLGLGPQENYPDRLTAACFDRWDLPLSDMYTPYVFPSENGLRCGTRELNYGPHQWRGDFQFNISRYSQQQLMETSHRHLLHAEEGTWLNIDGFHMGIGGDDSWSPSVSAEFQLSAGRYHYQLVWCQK

cells [2] = type: functional, cell-based
Vero = assay: cells; type: functional; conditions: Chlorocebus sabaeus
INS1 = assay: INS-1E survival protection against cytokine death – cell-based, luminescence, retest, dose response (AID 449756); type: functional; conditions: Rattus norvegicus;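 note: cell death triggered by IL-1 beta plus TNF-alpha plus IFN-gamma mixture; protective hits raise ATP signal compared with cytokine alone wells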
[3] = target: T2, Kappa-type opioid receptor (Homo sapiens, UniProt P41145); type: functional
T2 sequence (P41145 whole entry): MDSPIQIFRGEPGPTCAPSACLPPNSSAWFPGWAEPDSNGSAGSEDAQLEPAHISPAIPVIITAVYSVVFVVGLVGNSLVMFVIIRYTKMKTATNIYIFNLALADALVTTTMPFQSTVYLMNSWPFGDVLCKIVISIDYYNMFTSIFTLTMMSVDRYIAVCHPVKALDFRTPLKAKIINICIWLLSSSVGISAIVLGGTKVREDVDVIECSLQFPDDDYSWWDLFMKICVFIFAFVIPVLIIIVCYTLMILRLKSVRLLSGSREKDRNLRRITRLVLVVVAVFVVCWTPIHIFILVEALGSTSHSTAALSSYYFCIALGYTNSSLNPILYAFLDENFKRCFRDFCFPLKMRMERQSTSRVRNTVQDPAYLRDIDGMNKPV

[4] = NIH3T3 cell viability loss – ATP luminescence, mouse fibroblasts, counter-screen, dose response (AID 2010); type: functional, cell-based;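 note: cells exposed to compound for about 90 hours before reading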
[5] = Trypanosoma cruzi growth suppression in host cells – NIH3T3 host cells, beta-gal luminescence, confirmation (AID 2044); type: functional, cell-based;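 note: intracellular parasites grown in NIH/3T3 mouse fibroblasts as host cells; luminescent beta-galactosidase reporter signal from transgenic T. cruzi replicating inside host cells; inhibitors lower the luminescence signal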
cells [6] = type: functional, cell-based; remark: listed apart in the source
[7] = target: T2, Kappa-type opioid receptor; type: functional; remark: listed apart in the source
[8] = target: Phosphoethanolamine/phosphocholine phosphatase (Homo sapiens, UniProt Q8TCT1); assay: SAR assay for compounds that inhibit PHOSPHO1. [Related pubchem assays (depositor defined):AID1545, AID1565, AID1574]
Phosphoethanolamine/phosphocholine phosphatase, sequence (Q8TCT1 whole entry): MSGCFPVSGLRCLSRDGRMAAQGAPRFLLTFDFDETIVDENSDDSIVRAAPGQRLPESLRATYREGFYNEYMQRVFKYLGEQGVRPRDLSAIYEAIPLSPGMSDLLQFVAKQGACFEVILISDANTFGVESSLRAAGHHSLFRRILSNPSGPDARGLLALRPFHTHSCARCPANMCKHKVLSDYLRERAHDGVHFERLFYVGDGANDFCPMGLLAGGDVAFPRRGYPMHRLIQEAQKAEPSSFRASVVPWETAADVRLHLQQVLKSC

[9] = target: T3, Mannose-6-phosphate isomerase (Homo sapiens, UniProt P34949); assay: phosphomannose isomerase inhibition – biochemical, fluorescence intensity, confirmation (AID 1535)
T3 sequence (P34949 whole entry): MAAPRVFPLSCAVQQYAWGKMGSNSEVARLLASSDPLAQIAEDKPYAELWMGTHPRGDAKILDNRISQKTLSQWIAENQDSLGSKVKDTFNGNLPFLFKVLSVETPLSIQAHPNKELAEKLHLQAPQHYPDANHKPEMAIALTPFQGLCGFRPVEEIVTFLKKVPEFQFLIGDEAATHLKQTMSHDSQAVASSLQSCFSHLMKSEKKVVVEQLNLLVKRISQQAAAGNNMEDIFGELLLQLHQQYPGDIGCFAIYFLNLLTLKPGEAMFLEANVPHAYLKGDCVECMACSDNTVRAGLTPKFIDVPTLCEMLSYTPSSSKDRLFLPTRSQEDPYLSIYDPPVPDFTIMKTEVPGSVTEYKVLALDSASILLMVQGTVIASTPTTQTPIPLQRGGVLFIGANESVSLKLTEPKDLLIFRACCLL

Phosphomannomutase 2 = Phosphomannomutase 2 (Homo sapiens, UniProt O15305); assay: Counter screen SAR assay for PMM2 inhibitors via a fluorescence intensity assay. [Related pubchem assays (depositor defined):AID1545, AID1574]
Phosphomannomutase 2, sequence (O15305 whole entry): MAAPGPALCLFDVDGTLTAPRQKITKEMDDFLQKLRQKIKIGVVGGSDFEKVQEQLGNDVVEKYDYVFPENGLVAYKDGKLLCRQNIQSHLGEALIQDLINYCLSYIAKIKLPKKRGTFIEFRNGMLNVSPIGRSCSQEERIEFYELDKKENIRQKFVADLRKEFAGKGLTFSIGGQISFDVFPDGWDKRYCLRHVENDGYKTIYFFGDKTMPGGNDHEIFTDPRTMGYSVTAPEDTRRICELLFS

Trypanosoma cruzi = assay: anti-trypanosomal activity in host cells – cell-based, plate reader, dry powder, set 3, dose response (AID 493197); type: functional
[10] = NIH/3T3 cell viability loss – mouse embryonic fibroblasts, dry powder, set 2, cytotoxicity control, dose response (AID 493247); type: functional, cell-based; conditions: Fibroblast
[11] = target: Potassium voltage-gated channel subfamily KQT member 2 (Rattus norvegicus, UniProt O88943); assay: potentiation of rat KCNQ2 current – cell-based, retigabine-insensitive compounds, dose response (AID 2654); type: functional
Potassium voltage-gated channel subfamily KQT member 2, sequence (O88943 whole entry): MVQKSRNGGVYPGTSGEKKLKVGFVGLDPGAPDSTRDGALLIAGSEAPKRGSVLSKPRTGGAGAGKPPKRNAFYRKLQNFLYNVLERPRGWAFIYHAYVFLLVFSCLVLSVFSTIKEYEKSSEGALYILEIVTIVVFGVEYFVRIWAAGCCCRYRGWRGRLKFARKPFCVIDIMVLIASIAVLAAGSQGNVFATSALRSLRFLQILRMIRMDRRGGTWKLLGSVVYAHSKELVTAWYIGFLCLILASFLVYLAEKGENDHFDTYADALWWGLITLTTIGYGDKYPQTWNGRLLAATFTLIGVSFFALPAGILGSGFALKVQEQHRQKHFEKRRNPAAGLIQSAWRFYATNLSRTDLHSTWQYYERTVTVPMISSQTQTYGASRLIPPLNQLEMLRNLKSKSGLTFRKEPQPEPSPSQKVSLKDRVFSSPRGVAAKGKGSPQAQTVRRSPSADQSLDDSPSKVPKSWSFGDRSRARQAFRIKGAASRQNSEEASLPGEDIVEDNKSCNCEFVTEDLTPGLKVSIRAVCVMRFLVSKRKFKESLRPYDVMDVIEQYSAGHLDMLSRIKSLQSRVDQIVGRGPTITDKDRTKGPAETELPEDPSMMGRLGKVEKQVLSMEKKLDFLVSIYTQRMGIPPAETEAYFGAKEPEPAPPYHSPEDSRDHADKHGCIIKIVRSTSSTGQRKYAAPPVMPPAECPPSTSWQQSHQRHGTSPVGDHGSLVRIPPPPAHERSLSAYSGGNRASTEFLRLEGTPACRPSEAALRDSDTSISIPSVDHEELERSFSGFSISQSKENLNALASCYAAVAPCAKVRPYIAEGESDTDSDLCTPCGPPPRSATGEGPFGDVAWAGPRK

[12] = target: Acyl-homoserine lactone acylase PvdQ (Pseudomonas aeruginosa (strain LESB58), UniProt Q9I194); assay: PvdQ acylase enzyme activity blockers – biochemical, fluorescence, plate reader and imaging, cherry-picks, dose response (AID 493231)
Acyl-homoserine lactone acylase PvdQ, sequence (Q9I194 24-193 limits assumed): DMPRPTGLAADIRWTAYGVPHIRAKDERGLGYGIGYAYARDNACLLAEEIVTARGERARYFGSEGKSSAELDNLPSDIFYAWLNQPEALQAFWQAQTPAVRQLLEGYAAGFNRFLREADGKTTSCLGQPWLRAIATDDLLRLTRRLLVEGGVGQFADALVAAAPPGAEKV
Acyl-homoserine lactone acylase PvdQ, sequence (Q9I194 217-762 limits assumed): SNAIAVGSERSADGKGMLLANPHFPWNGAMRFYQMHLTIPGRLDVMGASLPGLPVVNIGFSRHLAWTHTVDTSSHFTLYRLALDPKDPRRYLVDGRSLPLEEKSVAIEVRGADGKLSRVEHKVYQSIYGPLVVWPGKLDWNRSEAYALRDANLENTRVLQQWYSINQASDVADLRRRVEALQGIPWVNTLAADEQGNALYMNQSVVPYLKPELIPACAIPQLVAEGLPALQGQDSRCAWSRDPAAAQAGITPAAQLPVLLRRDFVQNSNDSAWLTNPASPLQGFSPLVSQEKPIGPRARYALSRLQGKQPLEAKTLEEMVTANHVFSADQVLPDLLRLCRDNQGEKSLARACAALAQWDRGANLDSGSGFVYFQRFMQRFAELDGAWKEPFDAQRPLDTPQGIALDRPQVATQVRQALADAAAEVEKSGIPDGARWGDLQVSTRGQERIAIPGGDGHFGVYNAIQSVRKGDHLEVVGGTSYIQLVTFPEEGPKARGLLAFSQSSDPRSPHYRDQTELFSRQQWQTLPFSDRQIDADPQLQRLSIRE

[13] = target: Alkaline phosphatase, placental type (Homo sapiens, UniProt P05187); assay: human placental alkaline phosphatase inhibition – biochemical, luminescence, confirmation (AID 1512); type: functional
Alkaline phosphatase, placental type, sequence (P05187 whole entry): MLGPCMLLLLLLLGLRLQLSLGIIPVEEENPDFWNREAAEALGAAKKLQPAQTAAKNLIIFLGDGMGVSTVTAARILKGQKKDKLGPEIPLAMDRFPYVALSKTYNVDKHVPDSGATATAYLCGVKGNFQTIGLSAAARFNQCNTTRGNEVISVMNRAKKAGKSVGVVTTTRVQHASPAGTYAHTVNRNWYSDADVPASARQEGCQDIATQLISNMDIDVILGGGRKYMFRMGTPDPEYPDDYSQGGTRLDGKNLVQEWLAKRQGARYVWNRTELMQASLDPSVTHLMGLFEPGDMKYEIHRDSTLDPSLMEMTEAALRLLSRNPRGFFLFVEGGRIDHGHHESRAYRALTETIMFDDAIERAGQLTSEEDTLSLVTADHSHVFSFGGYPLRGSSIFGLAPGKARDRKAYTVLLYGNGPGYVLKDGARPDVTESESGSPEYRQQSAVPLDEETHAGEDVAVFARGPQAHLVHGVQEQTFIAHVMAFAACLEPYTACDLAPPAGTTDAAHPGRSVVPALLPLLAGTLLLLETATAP

[14] = target: T3, Mannose-6-phosphate isomerase; assay: Confirmation of compounds inhibiting phosphomannose isomerase (PMI) via a fluorescence intensity assay using a high concentration of mannose 6-phosphate. [Related pubchem assays (depositor defined):AID1209, AID1220, AID1545, AID1553, AID1620]
[15] = protection from phage-mediated lysis, alamar blue read-out – E. coli UTI89, K1F phage, bacterial capsule biogenesis inhibitors (AID 488966); type: functional

**Q.** With C/C(=N\NC(=O)Cc1ccc(Cl)cc1)c1ccccn1 as the compound, how does the AC50 [1] read?
**A.** Its AC50 is 4.22 µM (active).

**Q.** What about the EC50 (Beta-galactosidase) of the same compound?
**A.** Its EC50 is > 31.5 µM (inactive).

**Q.** And the EC50 (cells [2])?
**A.** The EC50 was 54.9 µM (active).

**Q.** What about the CC50 (Vero) of the same compound?
**A.** The CC50 was 2.29 µM (active).

**Q.** What about the AC50 (INS1) of the same compound?
**A.** The AC50 was 1.05 µM (active).

**Q.** And the IC50 [3]?
**A.** Its IC50 is greater than 32 µM.

**Q.** And the EC50 [4]?
**A.** The EC50 was < 6 µM (inconclusive).

**Q.** What about the EC50 [5] of the same compound?
**A.** The EC50 was 0.635 µM (active).

**Q.** And the EC50 (cells [6])?
**A.** The EC50 was 57.6 µM (active).

**Q.** What about the IC50 [7] of the same compound?
**A.** Its IC50 is 5.02 µM (active).

**Q.** Which results are given for Cc1c(Cl)cccc1-n1sc2cc(F)ccc2c1=O?
**A.** IC50 [8]: 1.53 µM (inactive); IC50 [9]: 28.6 µM (active); IC50 (Phosphomannomutase 2): 8.74 µM (active)

**Q.** Which AC50 (Trypanosoma cruzi) does the source give for O=C(N/N=C/c1ccc([N+](=O)[O-])o1)c1ccccn1 here?
**A.** The AC50 was 1.47 µM (active).

**Q.** What about the AC50 [10] of the same compound?
**A.** Its AC50 is 28 µM (active).

**Q.** For Cc1cccc(NC(=O)Nc2cccnc2)c1C, which EC50 [11] is on record?
**A.** The EC50 was 16 µM (active).

**Q.** With CCNC(=O)COc1ccc2ccccc2c1 as the compound, how does the AC50 [12] read?
**A.** The AC50 was 11.7 µM (active).

**Q.** With CCCCN1C(=O)/C(=N\Nc2ccccc2O)c2ccccc21 as the compound, how does the IC50 [9] read?
**A.** Its IC50 is > 100 µM (inactive).

**Q.** What about the IC50 [13] of the same compound?
**A.** Its IC50 is > 100 µM (inactive).

**Q.** And the IC50 [14]?
**A.** Its IC50 is > 100 µM (inactive).

**Q.** For Cc1nc(NC(=O)c2ccco2)sc1C(=O)Nc1ccc(Br)cc1, which IC50 [15] is on record?
**A.** Its IC50 is > 75 µM (active).

From ChEMBL document CHEMBL1201862, “PubChem BioAssay data set” (2004)
